According to patent publication US6569633B1, “Modulation of the sulfonylurea receptor and calcium in adipocytes for treatment of obesity/diabetes” (Artecel Science, Inc., priority 1998, dated 2003):

Assays:
[1] = biological target: rat adipocytes; conditions: read-out: KD of glibenclamide binding; cited from earlier work
[2] = system: human adipocytes; assay: Intracellular Ca2+ ([Ca2+]i) by fura-2 fluorometry in isolated human adipocytes; type: cell-based
Description: FIG. 2. Glibenclamide stimulation of [Ca^2+]i in isolated human adipocyte. [Ca^2+]i in isolated human adipocytes was determined fluorometrically as previously described (4,7). Briefly, the human adipocytes isolated as described above were incubated in DMEM medium overnight for cell recovery. Prior to [Ca^2+]i measurement, adipocytes were pre-incubated in serum-free medium for 2 hrs, rinsed with HBSS solution containing the following components in mM: NaCl 138, CaCl2 1.8, MgSO4 0.8, NaH2PO4 0.9, NaHCO3 4, glucose 20, glutamine 6, HEPES 20 and BSA 1%. Cells were then loaded with fura-2 acetoxymethyl ester (10 μM) in the same buffer for 45 min at 37° C. in the dark with continuous shaking. To remove extracellular dye, cells were rinsed with HBSS for 3 times and resuspended in this solution at a concentration of 2×10^5 cells/ml. [Ca^2+]i was measured using dual excitation (340 and 380 nm) and single emission (510 nm) fluorometry. Following the establishment of stable baseline, the response to glibenclamide (10 and 20 μM) was determined. Digitonin (25 μM) and Tris/EGTA (100 mM) were used to measure maximal and minimal fluorescence to calibrate the signals, and final [Ca^2+]i was then calculated by the equation of Grynkiewicz et al. (17). […] Glibenclamide (Glib) was added at time designated by the arrow. B. The dose-responsive effect of glibenclamide on [Ca^2+]i in human adipocytes. Glibenclamide was added at 10 and 20 µM at the indicated times. *p<0.05 vs. Control, **p<0.05 vs. 10 μM glibenclamide.
The functionality of the SUR1 receptor was determined with respect to calcium mobilization and small molecule effects. [Ca^2+]i response was measured fluorometrically in isolated human adipocytes using a standard method (2,16). Briefly, isolated human adipocytes were incubated in DMEM or any other suitable medium such as Ham's F-10, Modified Eagle's media plus 5-10% fetal calf serum overnight for cell recovery. Prior to [Ca^2+]i measurement, adipocytes were pre-incubated in serum-free medium for 2 hrs, rinsed with HBSS solution containing the following components in mM: NaCl 138, CaCl2 1.8, MgSO4 0.8, NaH2PO4 0.9, NaHCO3 4, glucose 20, glutamine 6, HEPES 20 and BSA 1%. Cells were then loaded with fura-2 acetoxymethyl ester (10 μM) in the same buffer for 30-60 min at 37° C. in dark with continuous shaking. To remove extracellular dye, cells were rinsed with HBSS for three times and resuspended in this solution at a concentration of 1-10×10^5 cells/ml. [Ca^2+]i was measured using dual excitation (340 and 380 nm) and single emission (510 nm) fluorometry. Following the establishment of stable baseline, the response to a SUR agonist such as glibenclamide (1-20 μM) can be determined. Digitonin (25 μM) and Tris/EGTA (100 mM) were used to measure maximal and minimal fluorescence to calibrate the signals, and final [Ca^2+]i was then calculated by a known method such as described in Grynkiewicz et al (17).
Correlation of lipolysis with flux of intracellular calcium ([Ca^2+]i) concentration is then performed. [Ca^2+]i is measured in primary adipocytes. For primary adipocytes, 3 ml of cells are resuspended in 6 ml of HBSS and fura-2/AM was loaded for 80 min at 37° C. Extracellular fura-2/AM is washed three times with HBSS by centrifugation. [Ca^2+]i levels are then measured fluorometrically in suspensions using dual excitation (340 and 380 nm)/single emission (510 nm) fluorometry and [Ca^2+]i is calculated by the computer in the fluorometer. As a control, after loading fura-2/AM cells are pretreated with nitrendipine (RBI, Natick, Mass.) (30 μM, final concentration) for 10 min at 37° C.

[3] = system: GPDH activity in human adipocytes; assay: GPDH activity in human adipocytes; type: cell-based
Description: FIG. 3. The lipogenic effect of glibenclamide in human adipocytes. As an indicator of lipogenic stimulation, both FAS and GPDH activity were measured. A. Glibenclamide stimulation of FAS activity. Human adipocytes were treated with 10 μM glibenclamide alone, 10 μM glibenclamide plus 10 μM diazoxide or 10 μM glibenclamide plus 30 μM nitrendipine for 48 hr. FAS was measured as described (6, 14). *p<0.001 vs. Control. B. Glibenclamide stimulation of GPDH activity. Human adipocytes were treated with 10 μM glibenclamide or 10 μM glibenclamide plus 10 μM diazoxide for 48 hr. GPDH activity was measured as described (14). *p<0.01 vs. Control.
To study the role of adipocyte SUR1 in regulating lipogenesis, we treated human adipocyte with SUR1 agonist and antagonist using FAS and GPDH activities as lipogenic markers. Human adipocytes were incubated in 24-well plates with the treatments indicated for 48 hr. FAS and GPDH activities were determined spectrophotometrically in crude cytosolic extracts of human adipocytes by measuring the oxidation rate of NADPH or NADH respectively, as previously described (14). The protein correction was measured by a modified Bradford method using Coomassie Blue dye (Pierce, Rockford, Ill.).

EC50 ([2]; Adipocyte, human adipocytes, read-out: EC50 for increase in intracellular free calcium): ~1000 nM
SMILES: COc1ccc(Cl)cc1C(=O)NCCc1ccc(S(=O)(=O)NC(=O)NC2CCCCC2)cc1 [glibenclamide]
Kd [1]: 1000 to 3000 nM
[Ca2+]i response ([2]; 20 µM glibenclamide (FIG. 2A)): increase in intracellular calcium
[Ca2+]i response ([2]; 1-20 μM, dose-dependent manner): sustained increases
maximum response of intracellular free calcium ([2]; graded doses, over a baseline of 190 nM): 388 ± 72 nM
increase in GPDH activity ([3]; 10 μM glibenclamide, 48 hr): 48%
GPDH activity ([3]; 10 μM glibenclamide, 48 hr, control 554.0±33.0): 821.0±73.4 NADH nM/min/mg protein
increased GPDH activity ([3]; SUR agonists such as glibenclamide, general description): 50-100%
